From patent US20230140691A1, “OPTICALLY CLEAR, IN-SITU FORMING BIODEGRADABLE NANO-CARRIERS FOR OCULAR THERAPY, AND METHODS USING SAME” (Rowan University, priority 2017, published 2023)

Test: In vitro drug release from PLGA-PEG-PLGA hydrogel in microfluidic devices at physiological flow rate
Format: physicochemical
Conditions: 15 μg HA loaded; for release rate of hyaluronic acid from hydrogel: 35° C.; for amount of HA released: in 10 days
Procedure: The final volume of the hydrogel solution with the compound of interest was constrained to 100 μL because of the anatomical space in the lens capsule. Physiological flow rate (2.4 μl/min) was achieved using microfluidic devices. The devices resemble the anatomical dimensions of both the anterior and posterior chamber of the human eye, as well as the physiological dynamics of the aqueous humor flow. All of the release studies were conducted at 35° C. • a. Dexamethasone (Hydrophobic): 100 μL of PLGA-PEG-PLGA hydrogel solution at 25 (w/v) % was mixed with 100 μg of dexamethasone. The collected samples were analyzed via HPLC. • b. […] The collected samples were analyzed via fluoresce spectroscopy at an excitation, filter, and emission wavelengths (nm) of 483, 515 524, respectively • c. Nucleic acid conjugates (Hydrophilic): 62 μL of nucleic acid conjugates in PBS solution (31 μg) were mixed with 38 μL of hydrogel solution at a concentration of 25 (w/v) %. Because the nucleic acid conjugates were already dissolved in PBS, the hydrogel solution was diluted down to 14 (w/v) %. The collected samples were analyzed via fluorescence spectroscopy at an excitation, filter, and emission wavelengths (nm) of 642, 665, and 670, respectively. • d. Hyaluronic acid (Hydrophilic): 30 μL of hyaluronic acid (HA, 800 KDa) stock solution at a concentration of 0.5 mg/mL in PBS (15 ug of HA) was mixed with 56 μL of hydrogel solution at a concentration of 25 (w/v) %. In addition, 14 μL of PBS were added to diluted the hydrogel solution down to 14 (w/v) %. Samples containing PLL were prepared by adding to the already mentioned composition 10 mg of PLL (10 (w/v) % PLL). The collected samples were analyzed via fluorescence spectroscopy at an excitation, filter, and emission wavelengths (nm) of 483, 495, 518, respectively.

[1] = systems modified with 10 (w/v) % PLL

Hyaluronic acid
release rate of hyaluronic acid from hydrogel (control systems, no PLL): 0.087 ± 0.044 µg/h
amount of HA released (control systems, no PLL): 13 µg
release rate of hyaluronic acid from hydrogel [1]: 0.055±0.026
amount of HA released [1]: 11 µg
